# Test system: Hepa 1-6 tumor cells
# Test: In vivo efficacy in subcutaneous Hepa 1-6 mouse liver cancer model
# Parameters: species or system C57BL/6 mice
# Conditions: p.o.
# Protocol: The study evaluated preclinically in vivo therapeutic efficacy of tucaresol and Compound C02 as a single agent in the treatment of subcutaneous Hepa 1-6 liver cancer models in C57BL/6 mice.
# Cell Culture: The Hepa 1-6 tumor cells were maintained in vitro as a monolayer culture in DMEM medium supplemented with 10% fetal bovine serum at 37° C. in an atmosphere of 5% CO2 in air. The cells in an exponential growth phase were harvested and counted for tumor inoculation.
# Tumor Inoculation: Each C57BL/6 mouse was subcutaneously inoculated at the right flank with Hepa 1-6 tumor cells (5×10^6) in 0.1 ml of PBS for tumor development. The date of tumor cell inoculation was denoted as day 0.
# Randomization: The randomization started when the mean tumor size reached approximately 100-150 mm^3 in each model. […]
# After tumor cell inoculation, the animals were checked daily for morbidity and mortality. During routine monitoring, the animals were checked for any effects of tumor growth and treatments on behavior such as mobility, food and water consumption, body weight gain/loss (body weights will be measured twice per week after randomization), eye/hair matting and any other abnormalities. Mortality and observed clinical signs were recorded for individual animals in detail. […]
# Tumor growth inhibition (TGI): TGI % is an indication of antitumor activity, and expressed as: TGI (%)=100×(1−T/C). […]
compound,measurement,value
O=Cc1c(OCc2ccc(C(=O)O)cc2)cccc1OC1O[C@H](CO)[C@@H](O)[C@H](O)[C@H]1O (stereo partly shown) [Compound C02],efficacy of once a day for five days (QD×5) against every-other-day administration,greater efficacy than every-other-day administration

# Reference: US20220387365A1, “TUCARESOL DERIVATIVES AND USES THEREOF” (BeyondSpring Pharmaceuticals, Inc., priority 2019, published 2022)
